Read-outs that look alike come from different tables or passages of the source.
Tests used:
[1] = cited from earlier work
[2] = Chlorinated DNAPL dissolution experiments with Citrus Burst-3; type: physicochemical; settings: water, thermodynamic from solid, in presence of chlorinated DNAPL, without cosolvent-surfactant, 25° C., read-out: Observed Solubility in Control Sample
Description: In order to test the treatment of chlorinated compounds, a chlorinated solvent DNAPL was obtained from a site consisting of chlorinated solvents and chlorinated semi-volatile compounds. Composition of the chlorinated solvent DNAPL is presented based on determinations using USEPA Methods 8260 and 8270.
Carbon tetrachloride and tetrachloroethylene comprised more than 87 percent of the DNAPL. Being a saturated compound, carbon tetrachloride is generally a pervasive and difficult to degrade compound once introduced to the subsurface.

[3] = cited from earlier work; remark: listed apart in the source

Structure (SMILES)	log Kow ([1]; Table 2)	Pure Compound Aqueous Solubility [3]	log Kow ([1]; Table 5)	also measured
Cc1ccc(C)c(C)c1 [1,2,4-Trimethybenzene]	3.7			
Cc1ccc2ccccc2c1 [2-Methylnaphthalene]	3.9			
ClC(Cl)(Cl)Cl [Carbon Tetrachloride (CTC), Carbon Tetrachloride]		129 µg/mL	2.83	solubility at 48 h [2]: 100 µg/mL
CCc1ccccc1 [Ethylbenzene]	3.1			
ClC(Cl)=C(Cl)C(Cl)=C(Cl)Cl [Hexachlorobutadiene (HCBD), Hexachlorobutadiene]			4.90	
Clc1c(Cl)c(Cl)c2c(Cl)c(Cl)c(Cl)c(Cl)c2c1Cl [Octachloronaphthalene (OCN), Octachloronaphthalene]		insoluble		
